Calls of active or inactive are those of the source. No rule for the calls is given here.
These molecules were tested against Heat shock protein HSP 90-alpha (Homo sapiens) (UniProt P07900) (assay: Hsp90 blockade concentration-response – dose response (AID 712)). Details: Hsp90 inhibition assay.
In the case of COc1cc(NCCCC(C)N)c2ncccc2c1 (centres undefined), the IC50 is reported as > 50 µM (inactive).
In the case of Cc1ccccc1OCC(O)Cn1c(NCCN(C)C)nc2c1c(=O)n(C)c(=O)n2C (centres undefined), the IC50 is reported as > 50 µM (inactive).
Work on C[C@H]1CCC[C@H](O)CCCCCc2cc(O)cc(O)c2C(=O)O1 yielded an IC50 of 2.65 µM.
O=S(=O)(Nc1cc(OCc2ccccc2)cc2cccnc12)c1ccc(F)cc1 was tested, and the IC50 was > 50 µM (inactive).
For C=CCn1c(NC(=O)c2ccccc2Cl)c(C#N)c2nc3ccccc3nc21, the IC50 was > 50 µM (inactive).
With Nc1ccc(NS(=O)(=O)c2cccc([N+](=O)[O-])c2)cc1-c1ccccc1O the IC50 was > 50 µM (inactive).
In the case of Cc1ccc(S(=O)(=O)Nc2ccc(N)c(-c3ccccc3O)c2)cc1, the IC50 is reported as > 50 µM (inactive).
O=S(=O)(NC1CCc2ccccc21)c1ccc(S(=O)(=O)N2CCCC2)cc1 (centres undefined) was tested, and the IC50 was > 50 µM (inactive).
For CCc1cc(C(=O)Cc2ccc(F)cc2)c(O)cc1O, the IC50 was > 50 µM (inactive).
For COc1cc(N)c2nccc(Cl)c2c1, the IC50 was > 50 µM (inactive).
O=C(c1cc(-c2ccncc2)nc2ccc(Br)cc12)N1CCN(c2ccccn2)CC1 was tested, and the IC50 was > 50 µM (inactive).
For Cc1ccc(C(=O)O)cc1S(=O)(=O)NCC1CCCO1 (centres undefined), the IC50 was > 50 µM (inactive).
CC(C)NCCCC(C)Nc1cc(O)cc2cccnc12 (centres undefined) was tested, and the IC50 was 1.56 µM.
O=[N+]([O-])c1cc(S(=O)(=O)Nc2ccc(F)c(-c3c(O)ccc4c3OCO4)c2)ccc1Cl showed an IC50 of 25 µM.
With Nc1cc(N)c(OCC(F)(F)F)cc1OCC(F)(F)F the IC50 was “inactive”.
For N#Cc1ccc(CSc2nnc(Nc3ccccc3)s2)cc1, the IC50 was > 50 µM (inactive).
With CCOC(=O)c1sc(NC(=O)CSc2nnc(-c3ccc(OC)cc3)n2CCOC)nc1C the IC50 was > 50 µM (inactive).
O=C1C(c2ccc3ccccc3n2)=C(O)c2ccccc21 was tested, and the IC50 was > 50 µM (inactive).
In the case of Cc1nc(-c2c(-c3ccc(O)cc3O)noc2C(F)(F)F)cs1, the IC50 is reported as 16.5 µM.
O=C(Cn1cnc2ccccc2c1=O)NCCC(=O)Nc1ccc2c(c1)OCCO2 was tested, and the IC50 was > 50 µM (inactive).
For COc1cc(NCCCC(C)=O)c2nccc(OCc3ccccc3)c2c1, the IC50 was > 50 µM (inactive).
Molecule O=C(NC1(C(F)(F)F)Oc2ccc(Cl)cc2O1)N1CCC2(CC1)OCCO2 (centres undefined) has an IC50 of 23.4 µM.
O=C1c2ccccc2-c2onc3ccc(NCc4ccco4)c1c23 was tested, and the IC50 was less than 1.56 µM.
In the case of COc1cc(NCCCC(C)=NO)c2nccc(OCc3ccccc3)c2c1, the IC50 is reported as > 50 µM (inactive).
In the case of Cc1ccc(S(=O)(=O)Nc2cc(O)cc3cccnc23)cc1, the IC50 is reported as > 50 µM (inactive).
CCc1ccc(CNc2ccc(N3CCN(C(C)=O)CC3)cc2)cc1 was tested, and the IC50 was “inactive”.
COc1ccc(S(=O)(=O)Nc2ccc(N)c(-c3ccccc3O)c2)cc1OC was tested, and the IC50 was > 50 µM (inactive).
In the case of COc1cc(NCC(O)CN(CC(C)C)CC(C)C)c2nc(C)ccc2c1 (centres undefined), the IC50 is reported as > 50 µM (inactive).
For CC(=O)Oc1cc2c(C(=O)NCCN3CCOCC3)c(C)oc2c2ccccc12, the IC50 was 19.7 µM.
CCN(CC)CC(O)c1ccnc2c(O)cccc12 (centres undefined) was tested, and the IC50 was > 50 µM (inactive).
Work on COc1ccc(-c2nc(CS(=O)CC(=O)NCc3ccccn3)c(C)o2)cc1 (centres undefined) yielded an IC50 of 19.3 µM.
CCC(C)NCCNc1cc(OC)cc2cccnc12 (centres undefined) showed an IC50 of 3.12 µM.
In the case of O=C(O)CCC(=O)NCc1ccc2[nH]c3c(c2c1)CCCC3, the IC50 is reported as > 50 µM (inactive).
Work on COC(=O)c1ccc2c(c1)SC1=C(CCCC1=O)N2 yielded an IC50 of 10.9 µM.
With COc1cc(C2CC(c3ccccc3O)=NN2)ccc1O (centres undefined) the IC50 was > 50 µM (inactive).
Work on Nc1ccc2ncccc2c1N yielded an IC50 of 3.38 µM.
For O=[N+]([O-])c1ccc(S(=O)(=O)Nc2cc(OCc3ccccc3)cc3cccnc23)cc1F, the IC50 was > 50 µM (inactive).
O=S(=O)(Cc1ccc(Cl)cc1)Nc1ccc2c(c1)OCO2 was tested, and the IC50 was > 50 µM (inactive).
With O=C1C(c2cnc3c(n2)CCC=C3)=C(O)c2ccccc21 the IC50 was > 50 µM (inactive).
In the case of O=C(c1ccc2ccccc2c1)N1CCN(c2ccc(O)cc2)CC1, the IC50 is reported as > 50 µM (inactive).
Cc1nnc(NC(=O)CSc2nc(N)cc(N)n2)s1 was tested, and the IC50 was > 50 µM (inactive).
CCOC(=O)c1cnc(SC2CCc3ccccc3C2=O)nc1N (centres undefined) showed an IC50 of 15.1 µM.
CC1=CC(C#N)(C#N)C(C#N)(C#N)C(c2ccccc2)N1 (centres undefined) showed an IC50 of 7.38 µM.
CCCC(C)N(CC)CCNc1cc(OC)cc2cccnc12 (centres undefined) was tested, and the IC50 was 12.5 µM.
In the case of CCCc1cc(-c2[nH]ncc2-c2ccc3c(c2)OCCCO3)c(O)cc1O, the IC50 is reported as 12.2 µM.
For CCOC(=O)NC1(NCc2ccccc2)Oc2ccccc2O1, the IC50 was “inactive”.
For COc1cc(NS(=O)(=O)c2ccc(F)c(C#N)c2)c2ncccc2c1, the IC50 was > 50 µM (inactive).
Work on O=C1NCCCC2c3cc(O)c4ccccc4c3OC12N1CCCCC1 (centres undefined) yielded an IC50 of 5.79 µM.
With COc1cccc(C(=O)NCC(=O)n2nc(C)cc2C)c1 the IC50 was > 50 µM (inactive).
With Cc1cc(=O)oc2c(N)c(O)ccc12 the IC50 was > 50 µM (inactive).
With CC(=O)Nc1cc(OC(C)=O)c2nonc2c1OC(C)=O the IC50 was 5.7 µM.
Work on COc1cc(NCCCC(C)N)c2nccc(Cl)c2c1 (centres undefined) yielded an IC50 of 12.5 µM.
With Cc1ccc(NC(=O)CC2SCCNC2=O)cc1Cl (centres undefined) the IC50 was > 50 µM (inactive).
CCCCn1c(NC(=O)c2ccccc2)c(C#N)c2nc3ccccc3nc21 gave an IC50 of 27.1 µM.
Molecule O=C1C(c2cnc3ccccc3n2)=C(O)c2ccccc21 has an IC50 of 20 µM.
In the case of Nc1cc(=O)[nH]c(SCC(=O)c2ccc3c(c2)OCO3)n1, the IC50 is reported as > 50 µM (inactive).
Cc1occc1C(=O)NC(C)C(C)(C)C (centres undefined) was tested, and the IC50 was > 50 µM (inactive).
For O=C1c2ccccc2-c2onc3ccc(NCCCn4ccnc4)c1c23, the IC50 was 0.28 µM.
With Nc1ccc(CSc2ccc(Cl)cc2)c(O)c1 the IC50 was > 50 µM (inactive).
With COc1cc(NCCCC(C)=O)c2nccc(Cl)c2c1 the IC50 was > 50 µM (inactive).
In the case of COC(=O)C1=C(C)N(c2cccc3ccccc23)C(=O)C1, the IC50 is reported as > 50 µM (inactive).
For COc1ccc(S(=O)(=O)Nc2ccc3c(c2)OCO3)cc1OC, the IC50 was “inactive”.
Cc1coc2c(O)cc3c(c12)OC1(N2CCCCC2)C(=O)NCCCC31 (centres undefined) was tested, and the IC50 was 6.62 µM.
For Nc1ccc(NS(=O)(=O)c2cc(Cl)ccc2Cl)cc1-c1ccccc1O, the IC50 was > 50 µM (inactive).
In the case of O=C1C(c2nc3ccccc3s2)=C(O)c2ccccc21, the IC50 is reported as > 50 µM (inactive).
With CC(C)NCCCCCNc1cc(O)cc2cccnc12 the IC50 was 6.25 µM.
Cc1[nH]c2c(N)cccc2c1C was tested, and the IC50 was > 50 µM (inactive).
For CCc1ccc(-c2nnn(CCC(=O)OC)n2)cc1, the IC50 was > 50 µM (inactive).
Oc1c(Cl)cc(Cl)c2cccnc12 was tested, and the IC50 was > 50 µM (inactive).
For COc1ccc(-n2nc3c(c2NC(=O)c2ccc(Br)cc2)CS(=O)C3)cc1 (centres undefined), the IC50 was > 50 µM (inactive).
C=CCn1c(N)c(C(=O)OCC(C)C)c2nc3ccccc3nc21 was tested, and the IC50 was > 50 µM (inactive).
For CC1(C)CC(=O)c2c(O)cc(O)cc2O1, the IC50 was > 50 µM (inactive).
For COc1ccc2c(c1-c1cc(NS(=O)(=O)c3cccc([N+](=O)[O-])c3)ccc1N)OCO2, the IC50 was > 50 µM (inactive).
For O=S(=O)(c1cccc(-c2nnco2)c1)N1CCCC1, the IC50 was > 50 µM (inactive).
In the case of CN(C)C=Nc1c(Br)cc(Br)c2nonc12, the IC50 is reported as > 50 µM (inactive).
In the case of CC(=O)Oc1cccc2c1C(=O)c1c(OC(C)=O)cc(C(=O)O)cc1C2=O, the IC50 is reported as 9.23 µM.
O=C(CSc1n[nH]c(-c2ccccc2)n1)c1ccc(O)c(O)c1 showed an IC50 of 7.72 µM.
With COc1ccc2c(c1-c1cc(NS(=O)(=O)c3cccc(N)c3)ccc1N)OCO2 the IC50 was > 50 µM (inactive).
With O=C1C(c2c(O)[nH]c3ccc([N+](=O)[O-])cc23)=Nc2ccccc21 the IC50 was less than 1.56 µM.
CC(=O)c1cccc(NC(=O)CSc2nnc(-c3ccc(S(=O)(=O)N4CCCC4)cc3)o2)c1 was tested, and the IC50 was > 50 µM (inactive).
With CCSc1nnc2c(n1)OC(c1ccc(C(=O)O)cc1)N(C(C)=O)c1ccccc1-2 (centres undefined) the IC50 was > 50 µM (inactive).
With CCn1c(CSc2nccn2C)nc2cc(C(=O)O)ccc21 the IC50 was 13.4 µM.
With CCCCn1c(NC(=O)c2ccco2)c(C(=O)OCC)c2nc3ccccc3nc21 the IC50 was > 50 µM (inactive).
CCn1c(CSc2nnc3ccccn23)nc2cc(C(=O)O)ccc21 showed an IC50 of 1.11 µM.
In the case of Nc1cccc2cc(O)ccc12, the IC50 is reported as > 50 µM (inactive).
In the case of CCOC(=O)N1CCC(NC(=O)CSCc2nc(-c3sccc3C)oc2C)CC1, the IC50 is reported as > 50 µM (inactive).
Molecule COc1cccc(C(=O)NC2CC3CCCC(C2)N3CC(=O)Nc2ccccc2)c1 (centres undefined) has an IC50 of 15.7 µM.
COc1ccc(C(=O)c2c(C)n(C)c(=O)n(C)c2=O)cc1 was tested, and the IC50 was > 50 µM (inactive).
Work on CCn1cc(C(=O)NCc2ccccn2)c(=O)c2cc(S(=O)(=O)N3CCCCC3)ccc21 yielded an IC50 of 17.4 µM.
For Cc1cc(=O)oc2c(N)c(OCc3ccccc3)ccc12, the IC50 was > 50 µM (inactive).
Molecule COc1cccc2c1C(=O)c1c(O)c3c(c(O)c1C2=O)C[C@@](O)(C(=O)CO)C[C@@H]3O[C@H]1C[C@H](N)[C@H](O)[C@H](C)O1 has an IC50 of 0.266 µM.
Work on CCc1cc(-c2[nH]ncc2-c2ccc3c(c2)OCO3)c(O)cc1O yielded an IC50 of 1.97 µM.
In the case of Nc1ccc(Nc2nc3ccccc3s2)c(O)c1, the IC50 is reported as > 50 µM (inactive).
With O=S(=O)(Nc1ccc(Cl)cc1O)c1ccccc1 the IC50 was > 50 µM (inactive).
With O=C(COc1ccc(-c2ccccc2)cc1)N1CCN(C(=O)c2cccnc2)CC1 the IC50 was > 50 µM (inactive).
With O=c1oc2c3c4c(cc2s1)CCCN4CCC3 the IC50 was > 50 µM (inactive).
With O=S(=O)(Nc1cc(O)cc2cccnc12)c1ccc(F)cc1 the IC50 was 11.2 µM.
In the case of O=C1c2ccccc2C(O)(O)C1(O)C1(O)C(=O)c2ccccc2C1(O)O (centres undefined), the IC50 is reported as 5 µM.
With c1ccc2sc(SCc3ccc(-c4nnco4)cc3)nc2c1 the IC50 was > 50 µM (inactive).
In the case of CCCc1cc2c(cc1NS(=O)(=O)c1ccc(CCNC(C)=O)cc1)OCO2, the IC50 is reported as > 50 µM (inactive).
O=S(=O)(Nc1ccc(O)c(-c2ccccc2O)c1)c1cc(Cl)ccc1Cl was tested, and the IC50 was > 50 µM (inactive).
O=C1C(C2=C(O)c3ccccc3C2=O)=Nc2ccccc21 was tested, and the IC50 was > 50 µM (inactive).
With CCc1nc(SCC(=O)c2ccc(O)cc2O)n[nH]1 the IC50 was > 50 µM (inactive).
With Nc1c(S(=O)(=O)c2cccc(Cl)c2)c2nc3ccccc3nc2n1/N=C/c1ccc(O)c(O)c1 the IC50 was > 50 µM (inactive).
In the case of CC(OC(=O)c1cccs1)C(=O)NCc1cccs1 (centres undefined), the IC50 is reported as > 50 µM (inactive).
In the case of CC(C)c1cc(Nc2cccc(O)c2)cc(C(C)C)c1O, the IC50 is reported as 27.2 µM.
For Nc1cc2ccccc2c(O)c1O, the IC50 was less than 1.56 µM.
O=C(c1n[nH]c(=O)c2ccccc12)N1CCN(C2c3ccccc3-c3ccccc32)CC1 was tested, and the IC50 was > 50 µM (inactive).
Work on COc1ccc(OC)c(-n2c(C)nc3cc(C(=O)O)ccc32)c1 yielded an IC50 of 29.8 µM.
